Laboratory results taken from PubChem BioAssay (NCI).
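1) Cells in 96-well plates. 2) Compound, 48 h, 5 concentrations. 3) Linear interpolation between surrounding doses. 4) Unreached endpoint = highest concentration. At the TGI there is no net growth.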

Experiments:
Assay in all cases: DTP human tumour cell line panel, 48 h
COLO 205 colon = test system: COLO 205 colon
SK-MEL-5 melanoma = test system: SK-MEL-5 melanoma
A498 renal = test system: A498 renal
SK-MEL-28 melanoma = test system: SK-MEL-28 melanoma
SW-620 colon = test system: SW-620 colon
OVCAR-8 ovarian = test system: OVCAR-8 ovarian
SNB-19 CNS = test system: SNB-19 CNS
KM12 colon = test system: KM12 colon
RPMI-8226 leukemia = test system: RPMI-8226 leukemia
786-0 renal = test system: 786-0 renal
EKVX NSCLC = test system: EKVX NSCLC
M19-MEL melanoma = test system: M19-MEL melanoma
SNB-78 CNS = test system: SNB-78 CNS
RXF 393 renal = test system: RXF 393 renal
CAKI-1 renal = test system: CAKI-1 renal
NCI-H23 lung = test system: NCI-H23 lung
CCRF-CEM leukemia = test system: CCRF-CEM leukemia
TK-10 renal = test system: TK-10 renal
MALME-3M melanoma = test system: MALME-3M melanoma
HT29 colon = test system: HT29 colon
SF-295 CNS = test system: SF-295 CNS
SR leukemia = test system: SR leukemia
SK-OV-3 ovarian = test system: SK-OV-3 ovarian
A549 NSCLC = test system: A549 NSCLC
LXFL 529 NSCLC = test system: LXFL 529 NSCLC
SK-MEL-2 melanoma = test system: SK-MEL-2 melanoma
SF-268 CNS = test system: SF-268 CNS
SF-539 CNS = test system: SF-539 CNS
OVCAR-5 ovarian = test system: OVCAR-5 ovarian
SNB-75 CNS = test system: SNB-75 CNS
UACC-257 melanoma = test system: UACC-257 melanoma
DLD-1 colon = test system: DLD-1 colon
DMS 114 small cell lung = test system: DMS 114 small cell lung
K-562 leukemia = test system: K-562 leukemia
NCI-H460 lung = test system: NCI-H460 lung
NCI-H522 lung = test system: NCI-H522 lung
HOP-92 NSCLC = test system: HOP-92 NSCLC
HCT-116 colon = test system: HCT-116 colon
HCC-2998 colon = test system: HCC-2998 colon
NCI-H226 lung = test system: NCI-H226 lung
OVCAR-3 ovarian = test system: OVCAR-3 ovarian
IGROV1 ovarian = test system: IGROV1 ovarian
DMS 273 small cell lung = test system: DMS 273 small cell lung
SN12C renal = test system: SN12C renal
HL-60(TB) leukemia = test system: HL-60(TB) leukemia
ACHN renal = test system: ACHN renal
UO-31 renal = test system: UO-31 renal
MOLT-4 leukemia = test system: MOLT-4 leukemia
UACC-62 melanoma = test system: UACC-62 melanoma
U251 CNS = test system: U251 CNS
KM20L2 colon = test system: KM20L2 colon
LOX IMVI melanoma = test system: LOX IMVI melanoma
HOP-18 NSCLC = test system: HOP-18 NSCLC
M14 melanoma = test system: M14 melanoma
HOP-62 NSCLC = test system: HOP-62 NSCLC
HCT-15 colon = test system: HCT-15 colon
OVCAR-4 ovarian = test system: OVCAR-4 ovarian

Measured: TGI

ClCCC[Si]12OCCN(CCO1)CCO2
not listed: KM20L2 colon | LOX IMVI melanoma | HOP-18 NSCLC | M14 melanoma | HOP-62 NSCLC | HCT-15 colon | OVCAR-4 ovarian
> 100 µM: all other assays above

O=c1[nH]cnc2c(COCCCO)c[nH]c12
not listed: A498 renal | SF-539 CNS | NCI-H460 lung | HCC-2998 colon | NCI-H226 lung | DMS 273 small cell lung | OVCAR-4 ovarian
> 100 µM: all other assays above

CCN=C1Nc2ccccc2-n2c(nn3nc4ccccc4c23)N1CC
not listed: SNB-78 CNS | CAKI-1 renal | TK-10 renal | MALME-3M melanoma | SK-OV-3 ovarian | SK-MEL-2 melanoma | HCC-2998 colon | OVCAR-3 ovarian | UO-31 renal
> 100 µM: all other assays above

CC(C)C1CNC2N1C(=O)C2(C)OCc1ccccc1 (stereo unspecified)
not listed: KM12 colon | SNB-78 CNS | CAKI-1 renal | SK-OV-3 ovarian | OVCAR-5 ovarian | NCI-H522 lung | HOP-92 NSCLC | HOP-18 NSCLC
> 100 µM: all other assays above

Cn1c(=O)c2nc3c4ccccc4c(=O)n(C)c3nc2n(C)c1=O
not listed: A498 renal | CAKI-1 renal | CCRF-CEM leukemia | DLD-1 colon | NCI-H460 lung | NCI-H522 lung | DMS 273 small cell lung | HL-60(TB) leukemia | LOX IMVI melanoma | HOP-18 NSCLC | M14 melanoma | HOP-62 NSCLC | OVCAR-4 ovarian
> 100 µM: all other assays above
